In US7511074B2, “Tetrafluorobenzyl derivatives and pharmaceutical composition for preventing and treating acute and chronic neurodegenerative diseases in central nervous system containing the same” (AmKor Pharma, Inc., priority 2002, dated 2009):

How the values were obtained:
[1] = test system: Mouse cortical cell cultures; assay: NMDA-induced excitotoxicity in mixed cortical cell cultures (LDH release); type: cell-based; settings: 300 μM NMDA for 10 min, co-treatment; LDH release 24 hr later
Experimental: (§1) Mouse cortical cell cultures (DIV 12-14) were exposed to 300 μM NMDA for 10 min, alone or with inclusion of 3-300 μM 2-Hydroxy-TTBA. Neuronal death was analyzed 24 hr later by measuring levels of LDH released into the bathing medium, mean ±SEM (n=9-12 culture wells per condition), scaled to mean LDH efflux value 24 hr after sham wash (=0) and continuous exposure to 500 μM NMDA (=100) that causes near complete neuronal death. *, Significant difference from the vehicle control, p<0.05 using ANOVA and Student-Neuman-Keuls' test.
as §1, with “alone (□)” for “alone”, “2-Hydroxy-TTS (●), 2-Hydroxy-TTA (◯), 2-Ethan-TTBA (▾), 2-Propan-TTBA (∇), or 2-Cyclohexan-TTBA (▪).” for “2-Hydroxy-TTBA.”, “(=100).” for “(=100) that causes near complete neuronal death.”
For mixed neuron-glia culture, mouse cerebral cortices were removed from brains of the 14-16 day-old-fetal mice (E14-16), gently triturated and plated on 24 well plates (2×10^5 cells/plate) precoated with 100 μg/ml poly-D-lysine and 4 μg/ml laminine. […]

[2] = test system: Sprague-dawley rats, four-vessel occlusion; assay: Mitochondrial ROS generation after transient global ischemia (four-vessel occlusion); type: in vivo, rat; settings: 50 mg/kg i.p. after reperfusion; 10 min four-vessel occlusion; analyzed 2 hr later
Experimental: Mitotracker CM-H2X ROS was injected into the lateral ventricle of rat brain at 24 hr before ischemic surgery, and then animals received transient forebrain ischemia for 10 min, with intraperitoneal injections of vehicle (control) or 2-Hydroxy-TTBA (50 mg/kg) at 5 min after reperfusion. The levels of mitochondrial ROS were analyzed 2 hr later, mean ±S.E.M. (n=50-70 neurons randomly chosen from the CA1 sector of the hippocampal formation per each condition). *, Significant difference from the vehicle control, p<0.05 using the independent t-test.
Male adult Sprague-dawley rats (250-300 g) were anesthetized with chloral hydrate and subjected to four-vessel occlusion model (occlusion of both common carotid arteries and vertebral arteries) as previously described [Pulsinelli and Brierley, stroke 10: 267-272 (1979)].
Rats received the intracerebroventricular injections of 0.4 nmol Mitotracker CM-H2X Ros. After 24 hr, rats received four-vessel occlusion for 10 min. Immediately after reperfusion, rats received the intraperitoneal injections of saline (control) or 2-Hydroxy-TTBA (50 mg/kg). Levels of mitochondrial ROS were analyzed 2 hr later by measuring the fluorescence intensity of oxidized Mitotracker CM-H2X Ros in mitochondria.

C57/BL6 mice, MPTP = assay: Dopaminergic neuronal death in substantia nigra after MPTP injection; type: in vivo, mouse; settings: 25 or 50 mg/kg ip every 12 hr, MPTP 40 mg/kg s.c.
Experimental: (§2) Bright field photomicrographs showing dopaminergic neurons in the substantia nigra immunostained with anti-tyrosine hydroxylase (TH) antibody 3 d following sham control (A) or the single daily injection of 1-methyl-4-phenyl-1,2,3,6-tetrahydropyridine (MPTP, 40 mg/kg, SC) in C57/BL6 mice, alone (B) or with intraperitoneal injections (2 times per day) of 2-Hydroxy-TTBA (C, 25 mg/kg; D, 50 mg/kg) prior to MPTP administration.
Quantification of TH-positive dopaminergic neurons in the substantia nigral sections 3 d following the single daily injection of (MPTP, 40 mg/kg, SC), alone or with pretreatment with 2-Hydroxy-TTBA as described above. *, Significant difference from the control, p<0.05 using ANOVA and Student-Neuman-Keuls' test.
as §2, with “antibody […]” for “antibody 3”
C57/BL6 mice (male, 8 weeks) received the injections of 40 mg/kg MPTP (s.c.), alone or with 25 or 50 mg/kg 2-Hydroxy-TTBA (ip) every 12 hr per day beginning 30 min before MPTP injection. […]

O=C(O)c1cc(NCc2c(F)c(F)c(C(F)(F)F)c(F)c2F)ccc1O [2-Hydroxy-TTBA, 2-hydroxy-5-(2,3,5,6-tetrafluoro-4-trifluoromethylbenzylamino)benzoic acid]
doses at which NMDA-induced neuronal death was blocked/prevented [1]: 10 to 300 µM
production of mitochondrial ROS after transient global ischemia [2]: reduced production of mitochondrial ROS
degeneration of dopaminergic neurons in substantia nigra, 3 d (C57/BL6 mice, MPTP; 3 d): significantly attenuated degeneration
protective effects on dopaminergic neurons, 7 d (C57/BL6 mice, MPTP; 7 d): protective effects of 2-Hydroxy-TTBA are also observed
